In BindingDB's records for doi:10.1021/jm00022a011 (Upjohn Laboratories, 1995):

These molecules were tested against Human immunodeficiency virus type 1 protease (Human immunodeficiency virus 1, UniProt Q72874) (assay: Inhibitory activity against HIV-I protease.).

With `O=c1oc2c(c(O)c1C(c1ccccc1)C1CC1)CCCCCC2CC1CC1` (configuration not stated) [10-Cyclopropylmethyl-3-(cyclopropyl-phenyl-methyl)-4-hydroxy-5,6,7,8,9,10-hexahydro-cycloocta[b]pyran-2-one] as the molecule, how does the Ki read?
The Ki was 0.024 µM.

`O=c1oc2c(c(O)c1C(c1ccccc1)C1CC1)CCCCCCC2CC1CC1` (configuration not stated) [11-Cyclopropylmethyl-3-(cyclopropyl-phenyl-methyl)-4-hydroxy-6,7,8,9,10,11-hexahydro-5H-cyclonona[b]pyran-2-one] was tested. Which Ki did it give?
The Ki was 0.024 µM.

What follows are molecules tested on HIV-I infected H9 cells (antiviral activity) (assay: Antiviral activity against HIV-I infected H9 cells).

Which IC50 does the source give for `CCNC(=O)Nc1cccc(C(c2c(O)c3c(oc2=O)CCCCCC3)C2CC2)c1` (configuration not stated) [1-{3-[Cyclopropyl-(4-hydroxy-2-oxo-5,6,7,8,9,10-hexahydro-2H-cycloocta[b]pyran-3-yl)-methyl]-phenyl}-3-ethyl-urea] here?
The IC50 was greater than 60 µM.

How did the IC50 turn out when `O=C(Nc1ccccc1)Nc1cccc(C(c2c(O)c3c(oc2=O)CCCCCC3)C2CC2)c1` (configuration not stated) [1-{3-[Cyclopropyl-(4-hydroxy-2-oxo-5,6,7,8,9,10-hexahydro-2H-cycloocta[b]pyran-3-yl)-methyl]-phenyl}-3-phenyl-urea] was run?
The IC50 was 21.7 µM.

Which IC50 does the source give for `CCCC1CCCCCCc2c1oc(=O)c(C(c1ccccc1)C1CC1)c2O` (configuration not stated) [3-(Cyclopropyl-phenyl-methyl)-4-hydroxy-11-propyl-6,7,8,9,10,11-hexahydro-5H-cyclonona[b]pyran-2-one] here?
Its IC50 is 5.3 µM.

Which IC50 does the source give for `CC(C)(C)OC(=O)NCCC(=O)Nc1cccc(C(c2c(O)c3c(oc2=O)CCCCCC3)C2CC2)c1` (configuration not stated) [(2-{3-[Cyclopropyl-(4-hydroxy-2-oxo-5,6,7,8,9,10-hexahydro-2H-cycloocta[b]pyran-3-yl)-methyl]-phenylcarbamoyl}-ethyl)-carbamic acid tert-butyl ester] here?
The IC50 was 33.4 µM.

Which IC50 does the source give for `CC(C)(C)OC(=O)NCCCC(=O)Nc1cccc(C(c2c(O)c3c(oc2=O)CCCCCC3)C2CC2)c1` (configuration not stated) [(3-{3-[Cyclopropyl-(4-hydroxy-2-oxo-5,6,7,8,9,10-hexahydro-2H-cycloocta[b]pyran-3-yl)-methyl]-phenylcarbamoyl}-propyl)-carbamic acid tert-butyl ester] here?
The IC50 was 49.5 µM.

How did the IC50 turn out when `C[C@@H](NC(=O)OC(C)(C)C)C(=O)Nc1cccc(C(c2c(O)c3c(oc2=O)CCCCCC3)C2CC2)c1` (stereo partly drawn) [((R)-1-{3-[Cyclopropyl-(4-hydroxy-2-oxo-5,6,7,8,9,10-hexahydro-2H-cycloocta[b]pyran-3-yl)-methyl]-phenylcarbamoyl}-ethyl)-carbamic acid tert-butyl ester] was run?
Its IC50 is greater than 60 µM.

For `C[C@H](NC(=O)OC(C)(C)C)C(=O)Nc1cccc(C(c2c(O)c3c(oc2=O)CCCCCC3)C2CC2)c1` (stereo partly drawn) [((S)-1-{3-[Cyclopropyl-(4-hydroxy-2-oxo-5,6,7,8,9,10-hexahydro-2H-cycloocta[b]pyran-3-yl)-methyl]-phenylcarbamoyl}-ethyl)-carbamic acid tert-butyl ester], which IC50 is on record?
The IC50 was 31.8 µM.

Which IC50 does the source give for `O=C(C=Cc1ccccc1)Nc1cccc(C(c2c(O)c3c(oc2=O)CCCCCC3)C2CC2)c1` (configuration not stated) [(E)-N-{3-[Cyclopropyl-(4-hydroxy-2-oxo-5,6,7,8,9,10-hexahydro-2H-cycloocta[b]pyran-3-yl)-methyl]-phenyl}-3-phenyl-acrylamide] here?
Its IC50 is 17.1 µM.

`CC(C)(C)OC(=O)N1CCC[C@H]1C(=O)Nc1cccc(C(c2c(O)c3c(oc2=O)CCCCCC3)C2CC2)c1` (stereo partly drawn) [(S)-2-{3-[Cyclopropyl-(4-hydroxy-2-oxo-5,6,7,8,9,10-hexahydro-2H-cycloocta[b]pyran-3-yl)-methyl]-phenylcarbamoyl}-pyrrolidine-1-carboxylic acid tert-butyl ester] was tested. Which IC50 did it give?
The IC50 was 29.2 µM.

Which IC50 does the source give for `CC(C)(C)OC(=O)NCC(=O)Nc1cccc(C(c2c(O)c3c(oc2=O)CCCCCC3)C2CC2)c1` (configuration not stated) [({3-[Cyclopropyl-(4-hydroxy-2-oxo-5,6,7,8,9,10-hexahydro-2H-cycloocta[b]pyran-3-yl)-methyl]-phenylcarbamoyl}-methyl)-carbamic acid tert-butyl ester] here?
Its IC50 is 29.8 µM.

Which IC50 does the source give for `O=C(Cc1ccccc1)Nc1cccc(C(c2c(O)c3c(oc2=O)CCCCCC3)C2CC2)c1` (configuration not stated) [N-{3-[Cyclopropyl-(4-hydroxy-2-oxo-5,6,7,8,9,10-hexahydro-2H-cycloocta[b]pyran-3-yl)-methyl]-phenyl}-2-phenyl-acetamide] here?
The IC50 was 17.3 µM.

`O=C(Nc1cccc(C(c2c(O)c3c(oc2=O)CCCCCC3)C2CC2)c1)c1ccc(F)cc1` (configuration not stated) [N-{3-[Cyclopropyl-(4-hydroxy-2-oxo-5,6,7,8,9,10-hexahydro-2H-cycloocta[b]pyran-3-yl)-methyl]-phenyl}-4-fluoro-benzamide] was tested. Which IC50 did it give?
Its IC50 is 21.9 µM.

How did the IC50 turn out when `O=C(Nc1cccc(C(c2c(O)c3c(oc2=O)CCCCCC3)C2CC2)c1)c1ccccc1` (configuration not stated) [N-{3-[Cyclopropyl-(4-hydroxy-2-oxo-5,6,7,8,9,10-hexahydro-2H-cycloocta[b]pyran-3-yl)-methyl]-phenyl}-benzamide] was run?
Its IC50 is 23.5 µM.

How did the IC50 turn out when `CCCC(=O)Nc1cccc(C(c2c(O)c3c(oc2=O)CCCCCC3)C2CC2)c1` (configuration not stated) [N-{3-[Cyclopropyl-(4-hydroxy-2-oxo-5,6,7,8,9,10-hexahydro-2H-cycloocta[b]pyran-3-yl)-methyl]-phenyl}-butyramide] was run?
The IC50 was 35.1 µM.

For `CC(C)(C)OC(=O)N[C@@H](Cc1cnc[nH]1)C(=O)Nc1cccc(C(c2c(O)c3c(oc2=O)CCCCCC3)C2CC2)c1` (stereo partly drawn) [[(S)-1-{3-[Cyclopropyl-(4-hydroxy-2-oxo-5,6,7,8,9,10-hexahydro-2H-cycloocta[b]pyran-3-yl)-methyl]-phenylcarbamoyl}-2-(1H-imidazol-4-yl)-ethyl]-carbamic acid tert-butyl ester], which IC50 is on record?
The IC50 was 45.3 µM.
